# Source: BindingDB's records for doi:10.1016/j.bioorg.2016.04.005 (Comsats Institute of Information Technology, 2016)
# Target: Urease subunit alpha (Sporosarcina pasteurii, UniProt P41020)
# Experiment: Urease Inhibition Assay
# Conditions: 30 °C
# Experimental: Reaction mixtures comprising one unit of urease enzyme (B. pasteurii) solution and 55 uL of buffers containing 100 mMol urea were incubated with 5 uL of test compounds (1 mMol concentration) at 30° C for 15 min in 96-well plates. Urease activity was determined by measuring ammonia production using the indophenol'smethod. Momentarily, 45 uL each of phenol reagent and 70 uL of alkali reagent were added to each well. The increasing absorbance at 630 nm was measured after 50 min, using a micro-plate reader (Molecular Devices, USA). All reactions were performed in triplicate in a final volume of 200 uL. The results (change in absorbance per min.) were processed by using the Soft-Max Pro s4.5.Software (Molecular Devices, USA).
# Chain of Urease subunit alpha (P41020 as listed by the source): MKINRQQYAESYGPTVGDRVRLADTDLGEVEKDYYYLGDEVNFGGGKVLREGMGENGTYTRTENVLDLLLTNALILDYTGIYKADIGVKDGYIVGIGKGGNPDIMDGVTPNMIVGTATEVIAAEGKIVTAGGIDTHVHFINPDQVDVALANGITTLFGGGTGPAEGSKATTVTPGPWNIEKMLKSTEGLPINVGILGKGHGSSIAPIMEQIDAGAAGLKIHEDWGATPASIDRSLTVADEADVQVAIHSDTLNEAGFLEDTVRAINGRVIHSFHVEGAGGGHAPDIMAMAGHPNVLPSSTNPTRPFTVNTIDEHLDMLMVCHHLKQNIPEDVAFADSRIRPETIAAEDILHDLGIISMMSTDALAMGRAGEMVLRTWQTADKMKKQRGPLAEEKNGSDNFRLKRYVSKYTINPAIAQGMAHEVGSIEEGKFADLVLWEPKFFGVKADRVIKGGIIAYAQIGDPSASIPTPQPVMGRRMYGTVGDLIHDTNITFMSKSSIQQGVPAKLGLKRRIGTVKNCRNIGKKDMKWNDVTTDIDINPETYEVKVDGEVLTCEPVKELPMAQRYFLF
row,IC50 [µM],Structure (SMILES)
1,69.5,O=c1oc2ccccc2c(O)c1S(=O)(=O)c1cccc2ccccc12 [3-(1-Naphthosulfonyl)-(4-hydroxycoumarin) (16)]
2,11.3,"COc1cc(C(=O)c2c(O)c3ccccc3oc2=O)cc(OC)c1OC [3-(3,4,5-Trimethoxybenzoyl)-(4-hydroxycoumarin) (9)]"
3,29.5,CS(=O)(=O)c1c(O)c2ccccc2oc1=O [3-(Methanesulfonoyl)-(4-hydroxycoumarin) (11)]
4,30.9,CCCCCCCCC(=O)c1c(O)c2ccccc2oc1=O [3-Nonanoyl-(4-hydroxycoumarin) (4)]

row,Structure (SMILES),IC50 [µM]
1,CCCCCCCCCC(=O)c1c(O)c2ccccc2oc1=O [3-Decanoyl-(4-hydroxycoumarin) (5)],13
2,CCCCCCCCCCCC(=O)c1c(O)c2ccccc2oc1=O [3-Lauroyl-(4-hydroxycoumarin) (6)],17.1
3,NC(N)=S [thiocarbamide],21
